Experimental data published in PMC11784839, “Monoaminergic neurotransmitters are bimodal effectors of tau aggregation” (Science Advances, 2025).

Molecular target: tau (Homo sapiens, UniProt P10636)
Experiment: MCE Phenols Library screening, tau biosensor cell seeding assay (AvZ)
Assay type: cell-based
Conditions: for Z repl 1 / Z Repl 2: Z score; for Z repl 1 / raw data 1: replicate 1; for Z Repl 2 / raw data 2: replicate 2; for AvZ (average z score of seeding, SDs from the mean level of seeding): 10 μM phenol in cell cultures, AD brain homogenate preincubated 16 hours, two biological replicates, positive = catalyzes seeding, negative = inhibits
[1] = average Z score of the two replicates, MCE Phenols Library screen
[2] = average puncta of the two replicates
[3] = average Z score of two replicates, Phenols Library screen
[4] = average Z score of the two replicates, tau seeding

tau, sequence (P10636 623-695 limits assumed): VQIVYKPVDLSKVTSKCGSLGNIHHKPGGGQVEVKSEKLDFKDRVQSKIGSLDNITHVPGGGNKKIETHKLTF

Molecule	Z repl 1	Z Repl 2	av Z [1]	av puncta [2]	raw data 1 (raw puncta)	raw data 2 (raw puncta)	AvZ (average z score of seeding, SDs from the mean level of seeding)	av puncta (average of raw data 1 and 2)	raw data 1 (puncta)	raw data 2 (puncta)	av Z [3]	av Z [4]
COc1cc(/C=C/C(=O)OCC2OC(OC3(CO)OC(CO)C(O)C3OC(=O)/C=C/c3cc(OC)c(O)c(OC)c3)C(O)C(O)C2O)cc(OC)c1O (centres unmarked) [(E)-3',6-Disinapoylsucrose]	0.224	-0.662	-0.219	17367.3	29041	5693.57						
Corylin	-0.181	-0.689	-0.435	14787.4	24170.2	5404.62						
COC1=C[C@@H]2[C@@H]3Cc4ccc(OC)c(O)c4[C@]2(CCN3C)CC1=O.Cl [Sinomenine hydrochloride]	-0.595	0.066	-0.264	16340.1	19209.2	13470.9						
O=C(O)CNC(=O)c1cccc(O)c1 [3-Hydroxyhippuric acid]	0.493	-0.448					0.023	20125.5	32267.3	7983.73		
COc1ccc(-c2cc(=O)c3c(O)c(OC)c(OC)cc3o2)cc1OC [5-Desmethylsinensetin]	0.14	-0.394						18294	28033.5	8554.47	-0.127	
COc1c(/C=C/C(=O)c2ccc(O)c(CC=C(C)C)c2)ccc(O)c1O [Licochalcone D]	0.138	0.907						25231	28009.4	22452.6		0.523
CC(=O)c1cc(O)ccc1O [2,5-Dihydroxyacetophenone]	-0.264	-0.663		14429.3			-0.464		23175.8	5682.84		
COc1c(O)cc2c(c1O)[C@@H]1O[C@H](CO)[C@@H](O)[C@H](O)[C@H]1OC2=O [Bergenin]	0.275	-0.537						18336.6	29646.8	7026.42	-0.131	
COc1ccc2c(=O)c(-c3ccc(O)cc3)coc2c1 [Isoformononetin]	0.35	-0.155						20831	30549.1	11112.8	0.098	
CC(C)=CC[C@@H](OC(=O)CC(C)(C)O)C1=CC(=O)c2c(O)ccc(O)c2C1=O [?-Hydroxyisovalerylshikonin]	-0.737	-0.673	-0.705	11543.5					17504.1	5582.9		
COc1cc(/C=C/C(=O)OC(C)C)ccc1O [Isopropyl ferulate]	0.168	-0.833		16119	28366.5	3871.42	-0.332					
Oc1cc2c(cc1O)[C@@H]1c3ccc(O)c(O)c3OC[C@]1(O)C2 [Hematoxylin]	-1.7	-0.865	-1.283					4731.6	5936.96	3526.25		
COc1cc(CCCO)cc(OC)c1O [Dihydrosinapyl alcohol]	-0.789	0.221		16004.7	16882.6	15126.8	-0.284					
O=C(O)[C@H]1O[C@@H](Oc2cc(O)c3c(=O)cc(-c4ccccc4)oc3c2)[C@H](O)[C@@H](O)[C@@H]1O [Chrysin-7-O-glucuronide]	0.79	0.073						24687.2	35829.5	13544.8		0.431
Cc1cc(O)c2c(c1)C(=O)c1cc(O)cc(O)c1C2=O [Emodin]	0.139	-0.692	-0.277	16696.4	28020.6	5372.21						
O=c1c(O)c(-c2ccc(O)c(O)c2)oc2cc(O)ccc12 [Fisetin]	-1.392	-0.758	-1.075					7157.01	9642.85	4671.16		
O=c1cc(-c2ccc(O)c(O)c2)oc2cc(O[C@@H]3O[C@H](CO)[C@@H](O)[C@H](O)[C@H]3O)c(O)c(O)c12 [6-Hydroxyluteolin 7-glucoside]	-0.171	-0.979	-0.575	13301.5					24297.8	2305.25		

Molecule	Z repl 1	Z Repl 2	av Z [1]	av puncta [2]	raw data 1 (raw puncta)	raw data 2 (raw puncta)	AvZ (average z score of seeding, SDs from the mean level of seeding)	av puncta (average of raw data 1 and 2)	raw data 1 (puncta)	raw data 2 (puncta)	av Z [3]	av Z [4]
COc1cc2c(cc1O)CC[n+]1cc3c(OC)c(OC)ccc3cc1-2.[Cl-] [Jatrorrhizine (chloride)]	0.505	-0.062						22254	32409.6	12098.4		0.221
O=c1c(-c2ccc(O)cc2)coc2c([C@@H]3O[C@H](CO[C@@H]4OC[C@@H](O)[C@H](O)[C@H]4O)[C@@H](O)[C@H](O)[C@H]3O)c(O)ccc12 [Puerarin 6''-O-Xyloside]	-0.042	-0.868	-0.455	14673.6	25849	3498.14						
O=C(O)c1ccc(O)cc1 [4-Hydroxybenzoic acid]	-0.323	-0.785		13431			-0.554		22475.3	4386.59		
COc1cc2c(cc1O)-c1cc3ccc(OC)c(OC)c3c[n+]1CC2 [Columbamine]	0.655	0.636						26887.1	34211.5	19562.6		0.646
Oc1cc(O)cc(/C=C/c2ccc(O)cc2O)c1 [Oxyresveratrol]	0.048	-0.792	-0.372	15614.1	26923.9	4304.18						
O=C(O[C@@H]1Cc2c(O)cc(O)cc2O[C@@H]1c1cc(O)c(=O)c2c(O)c(O)cc([C@H]3Oc4cc(O)cc(O)c4C[C@H]3O)c2c1)c1cc(O)c(O)c(O)c1 [Theaflavin-3-gallate]	-2.035	-1.192	-1.614					972.721	1914.49	30.952		
COc1cc(O)c(C(C)=O)c(OC)c1 [Xanthoxylin]	0.422	0.877					0.65	26774.2	31416.6	22131.8		
Cc1cc(O)cc(C)c1O [2,6-Dimethylhydroquinone]	0.44	-0.434					0.003	19881.8	31637.3	8126.32		
COc1cc(CCC(=O)CC(=O)CCc2ccc(O)c(OC)c2)ccc1O [Tetrahydrocurcumin]	0.298	-0.72	-0.211	17498	29921.4	5074.48						
COc1ccc(-c2cc(=O)c3c(O)cc(O)cc3o2)cc1 [Acacetin]	-0.027	-0.222						18211.5	26028.3	10394.7	-0.124	
Oc1ccc(OC2CCCCO2)cc1 (centres unmarked) [Deoxyarbutin]	0.557	-0.129						22209.6	33032.9	11386.3		0.214
CC(C)=CCC/C(C)=C/Cc1c(O)c(CC=C(C)C)c2c(c1O)C(=O)C1=C[C@@H]3C[C@H]4C(C)(C)O[C@@](C/C=C(/C)C(=O)O)(C3=O)[C@@]14O2 [Gambogenic acid]			-1.587									
COc1cc2cc(Oc3ccc4ccc(=O)oc4c3)c(=O)oc2cc1O [Daphnoretin]	-0.257	-0.157	-0.207	17173.7	23258.6	11088.8						
COc1cc(-c2oc3cc(OC)c(OC)c(O)c3c(=O)c2OC)ccc1O [Chrysosplenetin]	0.088	-0.899	-0.406	15282.9	27400	3165.82						
O=C(/C=C/c1ccc(O)c(O)c1)OCCc1ccccc1 [Caffeic acid phenethyl ester]	-0.979	-0.394	-0.686	11579.1					14598.6	8559.5		
CCCCC[C@H](O)CC(=O)CCc1ccc(O)c(OC)c1 [6-Gingerol]							0.629					
O=C1C=CC(=O)c2c(O)ccc(O)c21 [Naphthazarin]	-0.196	-0.791	-0.494	14154.5					23991	4318.06		
